Usually Ki stands for a measure of affinity in units of concentration, obtained from inhibition or displacement. High values mean weaker binding, low ones tighter binding.

The target of the assay is T1, LHRH rat pituitary receptor (Rattus norvegicus, UniProt P30969).
T1 construct: from tissue; host or cells: rat pituitary
T1 sequence (P30969 1-327): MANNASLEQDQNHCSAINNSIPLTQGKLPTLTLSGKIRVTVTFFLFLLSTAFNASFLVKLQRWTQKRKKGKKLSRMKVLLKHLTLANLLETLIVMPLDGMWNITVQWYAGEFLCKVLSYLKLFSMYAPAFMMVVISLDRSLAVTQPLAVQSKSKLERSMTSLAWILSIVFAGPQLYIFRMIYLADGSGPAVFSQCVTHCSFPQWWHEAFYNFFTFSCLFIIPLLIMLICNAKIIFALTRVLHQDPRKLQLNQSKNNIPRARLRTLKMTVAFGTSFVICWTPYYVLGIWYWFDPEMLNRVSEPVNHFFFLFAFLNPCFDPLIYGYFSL
In words: LHRH rat pituitary receptor binding (pKI). As to conditions: receptor binding affinity, negative logarithm of the equilibrium dissociation constants. Here is the method:
Representative compounds of the present invention were evaluated in in vitro tests for LHRH rat pituitary receptor binding (pKI) and for LH inhibition from rat pituitary cells for antagonist potency (pA2). The tests employed the methods detailed in F. Haviv, et al. J. Med. Chem., 32: 2340-2344 (1989). The receptor binding affinity (pKI) is the negative logarithm of the equilibrium dissociation constants.
In turn, `CC[C@H]1OC(=O)[C@H](C)[C@@H](OC(=O)N2C(=O)OC[C@@H]2C)[C@H](C)[C@@H](O[C@@H]2O[C@H](C)C[C@H](N(CC3CC3)CC3CC3)[C@H]2O)[C@](C)(OC)C[C@@H](C)C(=O)[C@H](C)[C@H]2N(CCc3ccc(Cl)c(Cl)c3)C(=O)O[C@]12C` [Example 42, 11-Deoxy-11-[carboxy(3,4-dichlorophenethyl)amino]-3-O-[4-(S)-methyl-oxazolidin-2-one]carbamoyl-5-O-(3'-bis-N-desmethyl-3'-bis-N-cyclopropylmethyl)desosaminyl-6-O-methyl-erythronolide A 11,12-(cyclic carbamate)] showed an inhibition constant (Ki) of 0.661 nM.
With `CC[C@H]1OC(=O)[C@H](C)[C@@H](OC(=O)N2C(=O)OC[C@@H]2C)[C@H](C)[C@@H](O[C@@H]2O[C@H](C)C[C@H](N(CC3CC3)CC3CC3)[C@H]2O)[C@](C)(OC)C[C@@H](C)C(=O)[C@H](C)[C@H]2N(CCc3ccc(F)c(Cl)c3)C(=O)O[C@]12C` [Example 43, 11-Deoxy-11-[carboxy(3-chloro-4-fluorophenethyl)amino]-3-O-[4-(S)-methyl-oxazolidin-2-one]carbamoyl-5-O-(3'-bis-N-desmethyl-3'-bis-N-cyclopropylmethyl)desosaminyl-6-O-methyl-erythronolide A 11,12-(cyclic carbamate)] the figure was 0.692 nM; with `CC[C@H]1OC(=O)[C@H](C)[C@@H](OC(=O)N2C(=O)OC[C@@H]2C)[C@H](C)[C@@H](O[C@@H]2O[C@H](C)C[C@H](N(CC3CC3)CC3CC3)[C@H]2O)[C@](C)(OC)C[C@@H](C)C(=O)[C@H](C)[C@H]2N(CCc3ccc(Cl)c(F)c3)C(=O)O[C@]12C` [Example 44, 11-Deoxy-11-[carboxy(4-chloro-3-fluorophenethyl)amino]-3-O-[4-(S)-methyl-oxazolidin-2-one]carbamoyl-5-O-(3'-bis-N-desmethyl-3'-bis-N-cyclopropylmethyl)desosaminyl-6-O-methyl-erythronolide A 11,12-(cyclic carbamate)], 3.16 nM.
For `CC[C@H]1OC(=O)[C@H](C)[C@@H](OC(=O)N2C(=O)OC[C@@H]2C)[C@H](C)[C@@H](O[C@@H]2O[C@H](C)C[C@H](NCC3CC3)[C@H]2O)[C@](C)(OC)C[C@@H](C)C(=O)[C@H](C)[C@H]2N(CCc3ccc(Cl)c(Cl)c3)C(=O)O[C@]12C` [Example 45, 11-Deoxy-11-[carboxy(3,4-dichlorophenethyl)amino]-3-O-[4-(S)-methyl-oxazolidin-2-one]carbamoyl-5-O-(3'-bis-N-desmethyl-3'-N-cyclopropylmethyl)desosaminyl-6-O-methyl-erythronolide A 11,12-(cyclic carbamate)], the Ki amounted to 8.13 nM.
For the compound `CC[C@H]1OC(=O)[C@H](C)[C@@H](OC(=O)N2C(=O)OC[C@@H]2C)[C@H](C)[C@@H](O[C@@H]2O[C@H](C)C[C@H](N(C)CC3(C)CC3)[C@H]2O)[C@](C)(OC)C[C@@H](C)C(=O)[C@H](C)[C@H]2N(CCc3ccc(Cl)c(Cl)c3)C(=O)O[C@]12C` [Example 54, 11-Deoxy-11-[carboxy(3,4-dichlorophenethyl)amino]-3-O-[4-(S)-methyl-oxazolidin-2-one]carbamoyl-5-O-[3'-N-desmethyl-3'-N-(1-methyl-cyclopropyl)methyl]desosaminyl-6-O-methyl-erythronolide A 11,12-(cyclic carbamate)], the affinity, expressed as Ki, was 1.48 nM.
Compound `CC[C@H]1OC(=O)[C@H](C)[C@@H](OC(=O)N2C(=O)OC[C@@H]2C)[C@H](C)[C@@H](O[C@@H]2O[C@H](C)C[C@H](N(C)CC3(C)CC3)[C@H]2O)[C@](C)(OC)C[C@@H](C)C(=O)[C@H](C)[C@H]2N(CCc3ccc(F)c(Cl)c3)C(=O)O[C@]12C` [Example 55, 11-Deoxy-11-[carboxy(3-chloro-4-fluorophenethyl)amino]-3-O-[4-(S)-methyl-oxazolidin-2-one]carbamoyl-5-O-[3'-N-desmethyl-3'-N-(1-methyl-cyclopropyl)methyl]desosaminyl-6-O-methyl-erythronolide A 11,12-(cyclic carbamate)] gave a Ki of 0.316 nM.
With `CC[C@H]1OC(=O)[C@H](C)[C@@H](OC(=O)N2C(=O)OC[C@@H]2C)[C@H](C)[C@@H](O[C@@H]2O[C@H](C)C[C@H](N(CC3CC3)C(C)C)[C@H]2O)[C@](C)(OC)C[C@@H](C)C(=O)[C@H](C)[C@H]2N(CCc3ccc(F)c(Cl)c3)C(=O)O[C@]12C` [Example 56, 11-Deoxy-11-[carboxy(3-chloro-4-fluorophenethyl)amino]-3-O-[4-(S)-methyl-oxazolidin-2-one]carbamoyl-5-O-(3'-bis-N-desmethyl-3'-N-cyclopropylmethyl-3'-N-isopropyl)desosaminyl-6-O-methyl-erythronolide A 11,12-(cyclic carbamate)] the figure was 0.12 nM.
